# Assay results: the NIST ThermoML archive (doi:10.1021/je201301b)
# Numbers after ± are expanded uncertainties.
# Conditions: 101.33 kPa, Liquid, Vibrating tube method
SMILES,mass density (298.15 K),mass density (308.15 K),mass density (318.15 K),mass density (328.15 K),mass density (338.15 K),mass density (348.15 K)
CCCCCCOCn1cc[n+](COCCCCCC)c1.O=S(=O)([N-]S(=O)(=O)C(F)(F)F)C(F)(F)F,1254.89 ± 3.9 kg/m3,1246.07 ± 3.9 kg/m3,1237.28 ± 3.8 kg/m3,1228.51 ± 3.8 kg/m3,1219.66 ± 3.7 kg/m3,1210.87 ± 3.7 kg/m3
CCCCCCOCn1cc[n+](C)c1.F[B-](F)(F)F [1-hexyloxymethyl-3-methylimidazolium tetrafluoroborate],1153.1 ± 3.3 kg/m3,1145.76 ± 3.2 kg/m3,1138.71 ± 3.2 kg/m3,1131.65 ± 3.2 kg/m3,1124.63 ± 3.1 kg/m3,1117.63 ± 3.1 kg/m3
